Reference: US20070248680A1, “Particles for Inactivating Toxins” (Board of Regents, The University of Texas System, priority 2005, published 2007)
Entries after “also recorded” stand apart in the source; their conditions may differ.

Columns and labels:
BSA antibody = experiment: Removal of free BSA antibody from serum of BSA-immunized mice (ELISA); format: in vivo, Balb/C mice; details: for time to removal of circulating BSA antibodies from serum / effect on free and circulating BSA antibody in serum: tail vein injection; for time to removal of circulating BSA antibodies from serum: FIG. 8B; for effect on free and circulating BSA antibody in serum: NIPA about 5 micrometers, PLLA about 10 micrometers, HA about 250 nanometers
Description: Another feature of the present invention is that selective tagging of particles of the present invention provides for the removal of select and specific unwanted products or toxins (e.g., unwanted proteins or antibodies) from a host. […] Following injection, mice (at least five mice per group) were sacrificed beginning on day one and continued to day 21. Serum samples from each mouse were recovered via retro-orbital blood collection. Sera was then used to measure the amount of free BSA antibody in the blood by standard enzyme-linked immuno-sorbent assay. FIGS. 8A and 8B are representative examples of the efficacy of specifically tagged particles, in which tagged particles are capable of removing a specific antibody present in serum.

BSA antibodies = experiment: Protein adsorption from BSA antisera onto particles, SDS-PAGE of eluted proteins; format: binding, Balb/C mice; details: serum of BSA-immunized mice, about 2 hours incubation, about 5 micrometer particles
Protocol: Another feature is that a tagged particle of the present invention may specifically recognize proteins or other host components of interest and as desired. For example, tagged particles were made to recover or eliminate BSA antibodies from immunized animals. First, Balb/C mice were immunized with bovine serum albumin (BSA) protein for four weeks to trigger BSA antibody production. Two weeks later, mice were sacrificed and their serum was recovered for analyses. […] After incubation for at least about 2 hours, particles were recovered by centrifugation. From a portion of each sample of recovered particles, proteins were eluted. Particles and eluted proteins were analyzed by SDS-PAGE gel electrophoresis to identify proteins that had adsorbed to the particles.
In FIG. 6, lane 1 is diluted mouse sera in PBS at concentration of 1 mg/mL; lanes 2, 5 and 7 depict proteins eluted from NIPA microparticles preincubated with antisera from three different mice; lanes 3, 4 and 6 depict proteins eluted from NIPA-BSA microparticles preincubated with antisera from three different mice. Lanes 2 and 3 are samples from a first mouse, lanes 4 and 5 are samples from a second mouse, and lanes 6 and 7 are samples from a third mouse.
In another example depicting the specific recognition of tagged particles, a similar immunization strategy was used. […] Eluted proteins were analyzed using SDS-PAGE gel electrophoresis. […]

[1] = Persistence of FITC-BSA tagged particles in blood after intravenous introduction (fluorometry); format: in vivo; details: Balb/C mice, about 5.0 micrometer particles
Protocol: One feature of the present invention is that a particle preparation of the present invention is capable of remaining in the host for a length of time, longer than proteins, antibodies, vaccines, or antimicrobials are known to last in a mammalian host. […] Particle were tagged by conjugating with FITC-labeled bovine serum albumin (BSA) protein. […] The amount of BSA present in each sample was assessed by fluorometry. The tagged particles in FIG. 5A were FITC-BSA conjugated to NIPA particles of about 5.0 micrometers (typical diameter). […] In addition, greater than 20% of the BSA-NIPA particles were still present in the blood after two weeks.

collagen antibody = experiment: Removal of collagen antibodies from circulation of collagen-immunized mice; format: in vivo, Balb/C mice; details: week 7, one week after intravenous injection of about 2.0 mg particles/0.5 mL; about 100 nanometer NIPA
Protocol: In still another example, Balb/C mice were immunized with bovine skin collagen following a standard immunization procedure as is known to one of ordinary skill in the art. At one week following immunization, mice began to produce antibodies against collagen. At the end of week 6 as depicted by the arrow in FIGS. 9A and 9B, mice were injected intravenously (via the tail vein) with particles tagged with and without bovine Type I collagen. Intravenous doses were about 2.0 mg particles/0.5 mL. FIGS. 9A and 9B are representative examples showing the in vivo efficacy of specifically tagged particles and their ability to remove a particular unwanted antibodies from circulation after allowing the unwanted antibody concentration to accumulate for six weeks. […] Histologic analyses of tissue samples collected from some representative animals, including samples from the kidneys, lung, liver, brain, intestines, heart and spleen, were examined for particles. […] These animals were also able to degrade the particle preparation (predominantly in the liver) and eliminate by-products of the preparation via hydrolysis (data not shown).
In FIG. 9B, the conditions as described for FIG. 9A were repeated using particle preparations tagged comprising HPC particles of 1-5 micrometers (typical diameter) conjugated with collagen (HPC-collagen) or untagged particles (HPC) injected into mice.

| Substance | time to removal of circulating BSA antibodies from serum (BSA antibody) | particles still present in the blood after two weeks [1] | effect on free and circulating BSA antibody in serum (BSA antibody) | also measured |
| --- | --- | --- | --- | --- |
| HA-BSA: HA nanoparticles (approximately 250 nanometers) tagged with BSA | less than a week | – | – | – |
| BSA-NIPA: FITC-BSA conjugated to NIPA particles of about 5.0 micrometers typical diameter | less than a week | greater than 20% | virtually complete by day 2 | proteins adsorbed to or recognized by particles (BSA antibodies; listed as BSA-NIPA microparticles): recognized a number of proteins, especially those representing immunoglobulin G; proteins adsorbed to or recognized by particles (BSA antibodies; listed as NIPA-BSA microparticles): recognized more proteins; time remained in the circulation ([1]; FIG. 5A): at least 2 weeks; free BSA antibodies in the serum (BSA antibody; tail vein injection at 6 weeks, about 5 micrometer particles, FIG. 8A): < 5% |
| PLLA-BSA: PLLA microparticles (approximately 10 micrometer) tagged with BSA | less than a week | – | – | – |
| bovine serum albumin [BSA, reference compound] | – | – | did little to effect; also recorded: none of the untagged particles (HA, NIPA, PLLA) or BSA alone (BSA) when injected into a host were able to significantly effect | – |
| BSA-HPC: HPC particles (approximately 5.0 micrometers) conjugated to BSA | – | greater than 20% | – | – |
| NP-Collagen: NIPA particles (approximately 100 nanometers) conjugated with bovine Type I collagen | – | – | – | reduction of collagen antibody concentration (collagen antibody): greater than 75% |
